pEC50, pIC50: −log10 of the molar value.
Legend:
[1] = target: T1, rat mGluR5 receptor (Rattus norvegicus, UniProt P31424); experiment: mGluR5 assay on HEK-expressing rat mGluR5 (fluorescent cell based Ca2+ mobilization assay); conditions: HEK-293 cells stably expressing rat mGluR5; no co-addition of glutamate; mean of at least three independent experiments in duplicate; read-out: Ca++ Flux (mean EC50)
T1 construct: expressed in transfected cells
Protocol: Positive functional expression of HEK-293 cells stably expressing rat mGluR5 receptor was determined by measuring intracellular Ca^2+ changes using a Fluorometric Imaging Plate Reader (FLIPR, Molecular Devices, Sunnyvale, Calif.) in response to glutamate or selective known mGluR5 agonists and antagonists. Rat mGluR5 RT-PCR products in HEK-293 cells were sequenced and found 100% identical to rat mGluR5 Genbank reference sequence (NM_017012). HEK-293 cells expressing rmGluR5 were maintained in media containing DMEM, dialyzed Fetal Bovine Serum (10%), Glutamax™ (2 mM), Penicillin (100 units/ml), Streptomycin (100 μg/ml), Geneticin (100 μg/ml) and Hygromycin-B (40 μg/ml) at 37° C./5% CO2.
After one day of incubation, cells were washed with assay buffer containing: 142 mM NaCl, 6 mM KCl, 1 mM Mg2SO4, 1 mM CaCl2, 20 mM HEPES, 1 g/L glucose, 0.125 mM sulfinpyrazone, pH 7.4. After 60 min of loading with 4 uM Fluo-4 (TefLabs, Austin, Tex.), the cells were washed three times with 50 μl of PBS Buffer and resuspended in […] of assay Buffer. The plates were then transferred to a Fluorometric Imaging Plate Reader (FLIPR, Molecular Devices, Sunnyvale, Calif.) for the assessment of intracellular calcium flux. After monitoring the baseline fluorescence for 10 seconds, increasing concentrations of representative compound (from 0.01 to 60 μM) of the present invention diluted in Assay Buffer (15 μl of 4× dilutions) was added to the cell. The final DMSO concentration in the assay was 0.3%. In each experiment, fluorescence was then monitored as a function of time for 3 minutes and the data analyzed using Microsoft Excel and GraphPad Prism. Each data point was also measured two times.
Under these experimental conditions, this HEK-rat mGluR5 cell line is able to directly detect positive allosteric modulators without the need of co-addition of glutamate or mGluR5 agonist.
The concentration-response curves of representative compounds of the present invention were generated using the Prism GraphPad software (Graph Pad Inc, San Diego, USA). The curves were fitted to a four-parameter logistic equation:
(Y=Bottom+(Top-Bottom)/(1+10̂((Log EC50−X)*Hill Slope)
allowing determination of EC50 values.
The Table 1 below represents the mean EC50 obtained from at least three independent experiments of selected molecules performed in duplicate.

[2] = target: T2, mGluR5 (Rattus norvegicus, UniProt P31424); experiment: mGluR5 binding assay ([3H]-MPEP, rat brain membranes); conditions: 3 nM [3H]-MPEP, rat cortical membranes, 1 h at 4° C.; read-out: IC50, inhibition of [3H]-MPEP binding
T2 construct: positive allosteric modulators of mGluR5 receptors in native preparations; endogenous in cells; host or cells: primary cortical astrocytes from Sprague-Dawley rat embryos (E16-19)
T2 sequence (P31424 21-1203): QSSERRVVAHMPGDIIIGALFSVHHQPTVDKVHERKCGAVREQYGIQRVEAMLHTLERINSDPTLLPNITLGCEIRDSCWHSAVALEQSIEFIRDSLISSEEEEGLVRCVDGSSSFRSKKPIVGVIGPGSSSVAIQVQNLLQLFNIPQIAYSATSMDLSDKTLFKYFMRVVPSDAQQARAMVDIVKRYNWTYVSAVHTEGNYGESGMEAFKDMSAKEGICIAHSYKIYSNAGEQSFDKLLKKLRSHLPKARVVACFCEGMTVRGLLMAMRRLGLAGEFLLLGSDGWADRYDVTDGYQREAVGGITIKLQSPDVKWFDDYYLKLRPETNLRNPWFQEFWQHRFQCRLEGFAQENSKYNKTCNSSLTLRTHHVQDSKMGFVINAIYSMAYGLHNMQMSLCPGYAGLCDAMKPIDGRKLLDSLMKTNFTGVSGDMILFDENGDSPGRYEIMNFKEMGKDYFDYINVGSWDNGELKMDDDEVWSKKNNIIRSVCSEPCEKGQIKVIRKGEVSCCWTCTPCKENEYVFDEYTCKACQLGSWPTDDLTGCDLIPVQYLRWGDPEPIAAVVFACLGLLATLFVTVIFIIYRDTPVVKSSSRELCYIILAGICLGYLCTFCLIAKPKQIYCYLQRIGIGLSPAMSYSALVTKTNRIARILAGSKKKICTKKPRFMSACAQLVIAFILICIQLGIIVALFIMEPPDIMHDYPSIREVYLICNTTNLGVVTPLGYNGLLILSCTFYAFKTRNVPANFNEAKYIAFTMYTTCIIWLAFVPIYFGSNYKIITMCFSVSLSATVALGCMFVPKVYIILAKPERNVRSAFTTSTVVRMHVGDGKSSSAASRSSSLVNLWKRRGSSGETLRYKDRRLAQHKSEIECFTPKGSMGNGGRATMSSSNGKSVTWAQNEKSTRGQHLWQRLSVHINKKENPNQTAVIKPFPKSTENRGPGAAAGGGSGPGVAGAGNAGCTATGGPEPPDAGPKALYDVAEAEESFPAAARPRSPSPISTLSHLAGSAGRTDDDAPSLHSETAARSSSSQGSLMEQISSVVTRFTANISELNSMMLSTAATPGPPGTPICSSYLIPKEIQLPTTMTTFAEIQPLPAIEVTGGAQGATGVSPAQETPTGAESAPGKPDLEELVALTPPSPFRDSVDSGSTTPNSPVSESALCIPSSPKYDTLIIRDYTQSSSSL
Source text: Activity of compounds of the invention was examined following a radioligand binding technique using whole rat brain and tritiated 2-methyl-6-(phenylethynyl)-pyridine ([^3H]-MPEP) as a ligand following similar methods than those described in Gasparini et al. (2002) Bioorg. Med. Chem. Lett. 12:407-409 and in Anderson et al. (2002) J. Pharmacol. Exp. Ther. 303 (3) 1044-1051.
Cortices were dissected out from brains of 200-300 g Sprague-Dawley rats (Charles River Laboratories, L'Arbresle, France). Tissues were homogenized in 10 volumes (vol/wt) of ice-cold 50 mM Hepes-NaOH (pH 7.4) using a Polytron disrupter (Kinematica A G, Luzern, Switzerland) and centrifuged for 30 min at 40,000 g. (4° C.). […] Protein concentration was determined by the Bradford method (Bio-Rad protein assay, Reinach, Switzerland) with bovine serum albumin as standard.
Membranes were thawed and resuspended in binding buffer containing 20 mM HEPES-NaOH, 3 mM MgCl2, 3 mM CaCl2, 100 mM NaCl, pH 7.4. […] Radioactivity was determined by liquid scintillation spectrometry using a 96-well plate reader (TopCount, Perkin-Elmer, Downers Grove, USA).
The inhibition curves were generated using the Prism GraphPad program (Graph Pad Software Inc, San Diego, USA). […] The mean of IC50 obtained from at least three independent experiments of selected molecules performed in duplicate were calculated.

[3] = tested on: Male C57BL6/j mice; experiment: Amphetamine model of schizophrenia (amphetamine-induced locomotor activity); format: in vivo; conditions: 30 mg/kg ip, 120 min before amphetamine 3.0 mg/kg s.c., first 30 minutes of a 60 minute session
Source text: Amphetamine-induced increases in locomotor ambulation are well known and are widely used as a model of the positive symptoms of schizophrenia. This model is based on evidence that amphetamine increases motor behaviors and can induce a psychotic state in humans (Yui et al. (2000) Ann. N.Y. Acad. Sci. 914:1-12). Further, it is well known that amphetamine-induced increases in locomotor activity are blocked by antipsychotics drugs that are effective in the treatment of schizophrenia (Arnt (1995) Eur. J. Pharmacol. 283:55-62).
Subjects: The present studies were performed in accordance with the animal care and use policies of Addex Pharmaceuticals and the laws and directives of Switzerland governing the care and use of animals. Male C57BL6/j mice (20-30 g) 7 weeks of age at the time of delivery were group housed in a temperature and humidity controlled facility on a 12 hour light/dark cycle for at least 7 days before use. Mice had access to food and water ad libitum except during locomotor activity experiments.
Assessment of locomotor (ambulatory) activity: The effects of compounds on amphetamine-induced locomotor activation in mice were tested. […] Locomotor activity (ambulations) was monitored by a videotracking system (VideoTrack, Viewpoint, Champagne au Mont d'Or, France) that recorded the ambulatory movements of mice. […] On test days, test compounds (10, 30, 50 or 100 mg/kg i.p. (intraperitoneal)) or vehicle were administered 120 minutes before amphetamine (3.0 mg/kg s.c.) or saline injection: Mice were placed into the locomotor boxes immediately after amphetamine or saline vehicle injection and their locomotor activity, defined as the distance traveled in centimeters (cm), was measured for 60 minutes.
Compound administration: The test compound was dissolved in a 5% DMSO/20% Tween 80/75% saline vehicle and administered in a volume of 10 ml/kg. […] D-amphetamine sulfate (Amino A G, Neuenhof, Switzerland) was dissolved in saline and administered at a dose of 3.0 mg/kg s.c. (expressed as the base) in a volume of 10 ml/kg. […]

T1 sequence (P31424 21-1171 isoform P31424-2 limits assumed): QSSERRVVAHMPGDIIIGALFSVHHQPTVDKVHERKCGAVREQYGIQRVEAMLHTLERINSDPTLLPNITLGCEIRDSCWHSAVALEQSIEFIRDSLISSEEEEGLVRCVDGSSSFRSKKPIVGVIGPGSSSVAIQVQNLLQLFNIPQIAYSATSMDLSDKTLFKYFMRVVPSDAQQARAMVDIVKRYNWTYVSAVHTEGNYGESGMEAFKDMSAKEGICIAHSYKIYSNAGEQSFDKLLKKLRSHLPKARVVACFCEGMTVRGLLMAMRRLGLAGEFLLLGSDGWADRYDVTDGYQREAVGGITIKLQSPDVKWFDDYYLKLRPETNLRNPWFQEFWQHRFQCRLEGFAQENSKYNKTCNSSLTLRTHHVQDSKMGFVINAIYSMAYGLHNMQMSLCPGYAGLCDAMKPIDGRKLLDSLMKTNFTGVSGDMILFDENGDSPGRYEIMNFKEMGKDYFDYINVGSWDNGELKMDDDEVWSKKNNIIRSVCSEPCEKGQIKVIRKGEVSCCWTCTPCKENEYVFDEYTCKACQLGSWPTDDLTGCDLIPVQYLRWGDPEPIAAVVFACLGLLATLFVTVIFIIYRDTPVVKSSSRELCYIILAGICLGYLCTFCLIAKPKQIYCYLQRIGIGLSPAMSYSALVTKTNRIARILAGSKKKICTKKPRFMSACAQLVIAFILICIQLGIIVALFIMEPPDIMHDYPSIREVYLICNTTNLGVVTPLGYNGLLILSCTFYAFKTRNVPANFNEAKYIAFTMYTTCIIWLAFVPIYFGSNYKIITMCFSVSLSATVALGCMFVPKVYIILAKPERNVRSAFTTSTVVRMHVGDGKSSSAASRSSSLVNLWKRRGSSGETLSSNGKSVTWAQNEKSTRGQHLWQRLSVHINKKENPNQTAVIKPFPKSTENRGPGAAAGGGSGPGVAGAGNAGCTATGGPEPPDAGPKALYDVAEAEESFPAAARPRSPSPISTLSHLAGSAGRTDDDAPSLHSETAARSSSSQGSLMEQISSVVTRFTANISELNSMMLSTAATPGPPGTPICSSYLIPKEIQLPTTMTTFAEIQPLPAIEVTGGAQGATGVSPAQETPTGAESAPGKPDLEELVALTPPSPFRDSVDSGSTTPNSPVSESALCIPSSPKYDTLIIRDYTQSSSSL

pEC50 [1]: > 6.00 | pIC50 [2]: > 4.52 | melting point: 157 to 160 °C
Structure (SMILES): O=C(c1ccc(F)cc1)N1CCC[C@H](c2noc(-c3ccc(F)cc3)n2)C1 [Example 1, (4-Fluoro-phenyl)-{(S)-3-[5-(4-fluoro-phenyl)-[1,2,4]oxadiazol-3-yl]-piperidin-1-yl}-methanone]
increase in locomotor activity induced by amphetamine [3]: significantly attenuated | increase in locomotor activity induced by amphetamine ([3]; listed as compound # 1): significantly attenuated | increase in locomotor activity induced by amphetamine ([3]; listed as example #1): significantly attenuate

Source: patent US20090215822A1, “Substituted Oxadiazole Derivatives as Positive Allosteric Modulators of Metabotropic Glutamate Receptors” (NIKEM RESEARCH SRL, priority 2005, published 2009)
